Test results: patent US11498909B2, “Compound acting as antibiotics” (KBP BIOSCIENCES CO., LTD., priority 2018, dated 2022)
Values after ≈ are worked out from the molar mass of the structure shown. Read-outs that look alike come from different tables or passages of the source.

Assays:
Klebsiella pneumoniae = test: In vitro antibacterial activity, agar dilution MIC (Experiment 1); assay type: cell-based
Method: (§1) Tested strains: all the clinically separated strains below were purchased from public facilities.
(§2) Escherichia coli ATCC25922, Pseudomonas aeruginosa ATCC27853, Klebsiella pneumoniae ATCC700603, and the like.
(§3) Tested Samples: Imipenem, Ceftazidime: Commercial Products, the Following Experiments were Carried Out According to the Content of an Effective Ingredient in Each Commercial Product;
(§4) The compounds of the present invention, their chemical names, and preparation methods are shown in the preparation example of each compound.
(§5) Experiment method: Agar dilution method, refer to National Committee for Clinical Laboratory Standards. 2006. Methods for Dilution Antimicrobial Susceptibility Tests for Bacteria That Grow Aerobically; Approved Standard—Seventh Edition M7-A7, Vol 26, No. 2, 2006, to determine the MIC of the compound. MIC represents the minimum inhibitory concentration.

Escherichia coli = test: as above; assay type: cell-based
Method: as §1, §2, §3, §4, §5

Pseudomonas aeruginosa [1] = test: as above; assay type: cell-based
Method: as §1, §2, §3, §4, §5

Pseudomonas aeruginosa [2] = test: In vitro antibacterial activity against Pseudomonas aeruginosa, agar dilution MIC (Experiment 3); assay type: cell-based; conditions: CLSI 2018 (Table 5)
Method: Tested samples: the compound of the present invention, prepared according to the preparation example method; Compound C, prepared with reference to WO2008154642A2.
With reference to the steps of the agar dilution method in the 2018 USA Clinical and Laboratory Standards Institute (CLSI), the determination of the minimum inhibitory concentration (MIC) of the compounds against the strain(s) was carried out.
Preparation of drug-containing plate: (1) a drug solution with the highest concentration was prepared, and the highest concentration of each compound was 160 μg/mL. (2) For each compound, the drug solution with the highest concentration was subjected to the double dilution, and a total of 10 concentration gradients was obtained; for each of dilution gradient, 2 mL of the drug solution was added to 18 mL MH agar solution which had been autoclaved at 121° C. and cooled to about 50° C.; the mixture was uniformly mixed, left stand and cooled to give a drug-containing plate; and the plate was labeled. The final concentrations of the compound were respectively 16, 8, 4, 2, 1, 0.5, 0.25, 0.125, 0.06 and 0.03 μg/mL.
Inoculum preparation and inoculation: A fresh single colony was selected, diluted with 0.9% sodium chloride injection, adjusted to 0.5 #McFarland turbidity, and then diluted 10 times with 0.9% sodium chloride injection, then inoculated with an automatic multi-point inoculation instrument to the labeled drug-containing plate.

[3] = test system: polymyxin-resistant mcr-1 positive Enterobacteriaceae; test: In vitro antibacterial effect on polymyxin-resistant mcr-1 positive Enterobacteriaceae, agar dilution MIC (Experiment 2); assay type: cell-based, Escherichia coli
Method: Tested samples: the compounds of the present invention, prepared according to the methods of the preparation examples;
Polymyxin E sulphate, Ampicillin, Cefotaxime, Gentamicin, Ciprofloxacin, Tetracycline, and Bactrim were all commercial products, the following experiments were carried out according to the content of an effective ingredient in each commercial product.
Tested strains: Escherichia coli carrying mcr-1 gene isolated from animals and Escherichia coli ATCC25922, a quality control strain, were provided by South China Agricultural University.
With reference to the agar dilution method in CLSI, the MIC value of the tested drugs to the polymyxin resistant mcr-1 positive Escherichia coli were determined.
Preparation of drug-containing agar plates: a drug solution with the highest concentration was prepared for each compound; the drug solution with the highest concentration was subjected to the double dilution; for each of dilution gradient, 1 mL (20×drug working solution) of the drug solution was added to 19 mL MH agar at 45-50° C.; immediately after addition, the agar and the drug solution were uniformly mixed to give a drug-containing agar plate with final concentrations of […], and the plate was solidified for later use; and in the meanwhile, a growth control group was arranged.
Inoculum preparation and culture: the strains stored at −80° C. were rejuvenated and formulated with broth so that the turbidity reached or exceeded 0.5 #McFarland unit; a 96-well plate was used as the inoculation tank, and the bacterial solution was diluted with sodium chloride injection so that the content of bacteria inoculated on the agar was 10^4 CFU/point. A multi-point inoculation instrument was used to inoculate the bacterial solution to the surface of the labeled drug-containing agar. After the water in the inoculation point was completely absorbed by the agar, the plate was placed upside down in a 37° C. constant-temperature incubator and incubated for 16-20 hours.

[4] = Pharmacokinetics (PK) determination in SD rats (Experiment 4); assay type: in vivo; conditions: plasma; for Cl_obs / Vz_obs / t1/2z / λ_z: IV 2 mg/kg; for AUC(0-t) / AUC(0-inf): Sprague-Dawley (SD), rat, iv; for AUC(0-inf): read-out: AUCINF_obs
Method: The compound of the present invention, self-prepared and dissolved in a suitable solvent.
Instrument and equipment: API4000 LC-MS/MS
Chromatographic column: Waters XBridge C18(2.1×50 mm, […])
Rat blood collection: Animals were fixed. The animal's tail was heated with a water bathtub 10 minutes before each time point. About 200 μL of the blood was collected through the caudal vein. After the blood collection, the blood was placed in an anticoagulation tube containing heparin sodium. The blood samples were centrifuged at 8000 rpm for 6 minutes at 4° C. to obtain plasma samples. The plasma must be prepared within 30 minutes after the blood collection. The plasma was stored in a refrigerator at −80° C. before the test.
(1) Test samples were removed from the refrigerator (−80° C.), naturally thawed at room temperature, and then vortexed for 5 minutes;
(2) 20 μL sample was precisely pipetted to a 1.5 mL centrifuge tube;
(3) 200 μL of the internal standard solution was added;
(4) The mixture was vortexed for 5 minutes and centrifuged for 5 minutes (12000 revolutions per minute);
(5) 100 μL of the supernate was precisely pipetted, 100 μL of water was added, the mixture was vortexed for 5 minutes, and the sample was sent to LC-MS/MS for analysis.
The results of the concentrations of the test samples (plasma samples) were output with Analyst 1.6.1 of AB Corporation. The meaning value, the standard deviation, the coefficient of variation, and other parameters (not necessary to calculate the parameter that can be directly output from Analyst 1.6.1) were calculated with Microsoft Excel, and the PK parameter is calculated with Pharsight Phoenix 6.1 software.

[5] = agar dilution (Table 3), read-out: MIC50
[6] = agar dilution (Table 3), read-out: MIC90

| MIC50 (Klebsiella pneumoniae; agar dilution, read-out: MIC50) [µg/mL] | MIC90 (Klebsiella pneumoniae; agar dilution, read-out: MIC90) [µg/mL] | MIC50 (Pseudomonas aeruginosa [1]; [5]) [µg/mL] | MIC90 (Pseudomonas aeruginosa [1]; [6]) [µg/mL] | MIC50 (Escherichia coli; agar dilution, read-out: MIC50) [µg/mL] | MIC90 (Escherichia coli; agar dilution, read-out: MIC90) [µg/mL] | Structure (SMILES) | MIC50 (Escherichia coli) [µg/mL] | MIC90 (Escherichia coli) [µg/mL] | MIC50 (Pseudomonas aeruginosa [2]) [µg/mL] | MIC90 (Pseudomonas aeruginosa [2]; read-out: MIC90) [µg/mL] | AUC(0-t) ([4]; 2 mg/kg) [ng·h/mL] | AUC(0-inf) ([4]; 2 mg/kg) [ng·h/mL] | MIC50 (Klebsiella pneumoniae) [µg/mL] | MIC90 (Klebsiella pneumoniae) [µg/mL] | MIC50 (Pseudomonas aeruginosa [1]) [µg/mL] | MIC90 (Pseudomonas aeruginosa [1]) [µg/mL] | Cl_obs [4] [mL/min/kg] | Vz_obs [4] [L/kg] | t1/2z [4] [min] | λ_z [4] [h⁻¹] | further results |
| --- | --- | --- | --- | --- | --- | --- | --- | --- | --- | --- | --- | --- | --- | --- | --- | --- | --- | --- | --- | --- | --- |
| 1 (≈ 2.21 µM) | 1 (≈ 2.21 µM) | 1 (≈ 2.21 µM) | 8 (≈ 17.7 µM) | 0.25 (≈ 0.554 µM) | 0.25 (≈ 0.554 µM) | C[C@@H](O)[C@H](NC(=O)c1ccc(C#CC#Cc2ccc(CN3CCOCC3)o2)cc1)C(=O)NO [Compound 23, N-((2S,3R)-3-hydroxy-1-(hydroxyamino)-1-oxobutan-2-yl)-4-((5-(morpholinomethyl)furan-2-yl)buta-1,3-diynyl)benzamide] |  |  |  |  | 1160 ± 278 | 1160 ± 277 |  |  |  |  | 30 ± 8.33 | 0.52 ± 0.02 | 12.6 ± 3.6 | 3.47 ± 1.09 |  |
| 0.125 (≈ 0.314 µM) | 0.25 (≈ 0.627 µM) | 0.25 (≈ 0.627 µM) | 1 (≈ 2.51 µM) | ≤ 0.03 | 0.06 (≈ 0.151 µM) | C[C@@H](O)[C@H](NC(=O)c1ccc(C#CC#Cc2ccc(CO)s2)cc1)C(=O)NO [Compound 41, N-((2S,3R)-3-hydroxy-1-(hydroxyamino)-1-oxobutan-2-yl)-4-((5-(hydroxymethyl)thienyl-2-yl)buta-1,3-diynyl)benzamide] |  |  |  |  | 1590 ± 447 | 1590 ± 446 |  |  |  |  | 22 ± 5.5 | 0.61 ± 0.20 | 19.2 ± 2.4 | 2.21 ± 0.29 |  |

The next lines start with the compound.

| Structure (SMILES) | MIC50 (Klebsiella pneumoniae; agar dilution, read-out: MIC50) [µg/mL] | MIC90 (Klebsiella pneumoniae; agar dilution, read-out: MIC90) [µg/mL] | MIC50 (Pseudomonas aeruginosa [1]; [5]) [µg/mL] | MIC90 (Pseudomonas aeruginosa [1]; [6]) [µg/mL] | MIC50 (Escherichia coli; agar dilution, read-out: MIC50) [µg/mL] | MIC90 (Escherichia coli; agar dilution, read-out: MIC90) [µg/mL] | MIC50 (Escherichia coli) [µg/mL] | MIC90 (Escherichia coli) [µg/mL] | MIC50 (Pseudomonas aeruginosa [2]) [µg/mL] | MIC90 (Pseudomonas aeruginosa [2]; read-out: MIC90) [µg/mL] | AUC(0-t) ([4]; 2 mg/kg) [ng·h/mL] | AUC(0-inf) ([4]; 2 mg/kg) [ng·h/mL] | MIC50 (Klebsiella pneumoniae) [µg/mL] | MIC90 (Klebsiella pneumoniae) [µg/mL] | MIC50 (Pseudomonas aeruginosa [1]) [µg/mL] | MIC90 (Pseudomonas aeruginosa [1]) [µg/mL] | Cl_obs [4] [mL/min/kg] | Vz_obs [4] [L/kg] | t1/2z [4] [min] | λ_z [4] [h⁻¹] | further results |
| --- | --- | --- | --- | --- | --- | --- | --- | --- | --- | --- | --- | --- | --- | --- | --- | --- | --- | --- | --- | --- | --- |
| CC(O)[C@H](NC(=O)c1ccc(C#CC#Cc2ccc(CO)o2)cc1)C(=O)NO (stereo in doubt) [Compound 6, N-((2S,3R)-3-hydroxy-1-(hydroxyamino)-1-oxobutan-2-yl)-4-((5-(hydroxymethyl)furan-2-yl)buta-1,3-diynyl)benzamide] | 1 (≈ 2.62 µM) | 1 (≈ 2.62 µM) | 0.25 (≈ 0.654 µM) | 1 (≈ 2.62 µM) |  |  | 0.125 (≈ 0.327 µM) | 0.125 (≈ 0.327 µM) | 0.5 (≈ 1.31 µM) | 1 (≈ 2.62 µM) | 4000 ± 442 | 4010 ± 443 |  |  |  |  |  |  |  |  | MIC90 ([3]; Escherichia coli, read-out: MIC90 Value, polymyxin-resistant mcr-1 positive Escherichia coli, agar dilution): 1 µg/mL (≈ 2.62 µM); MIC90 Value ([3]; polymyxin-resistant mcr-1 positive Escherichia coli, agar dilution): 0.5 µg/mL (≈ 1.31 µM); Cl_obs ([4]; 2 mg/kg): 8.33 ± 1 mL/min/kg; Vz_obs ([4]; 2 mg/kg): 0.46 ± 0.14 L/kg; t1/2z ([4]; 2 mg/kg): 37.2 ± 7.2 min; λ_z ([4]; 2 mg/kg): 1.14 ± 0.21 h⁻¹ |
| C[C@@H](O)[C@H](NC(=O)c1ccc(C#CC#Cc2ccc(CN(C)C)o2)cc1)C(=O)NO [Compound 4, 4-((5-((dimethylamino)methyl)furan-2-yl)buta-1,3-diynyl)-N-((2S,3R)-3-hydroxy-1-(hydroxyamino)-1-oxobutan-2-yl)benzamide] |  |  |  |  |  |  | 0.25 (≈ 0.611 µM) | 0.25 (≈ 0.611 µM) |  |  | 414 ± 10.3 | 417 ± 9.68 | 1 (≈ 2.44 µM) | 2 (≈ 4.88 µM) | 1 (≈ 2.44 µM) | 4 (≈ 9.77 µM) | 80 ± 1.83 | 1.74 ± 0.81 | 15 ± 7.2 | 3.16 ± 1.28 |  |
| C[C@@H](O)[C@H](NC(=O)c1ccc(C#CC#Cc2ccc(CO)n2C)cc1)C(=O)NO [Compound 33, N-((2S,3R)-3-hydroxy-1-(hydroxamino)-1-oxobutan-2-yl)-4-((5-(hydroxymethyl)-1-methyl-1H-pyrrol-2-yl)buta-1,3-diynyl)benzamide] |  |  |  |  |  |  | 0.125 (≈ 0.316 µM) | 0.125 (≈ 0.316 µM) |  |  | 666 ± 318 | 671 ± 315 | 0.5 (≈ 1.26 µM) | 1 (≈ 2.53 µM) | 1 (≈ 2.53 µM) | 8 (≈ 20.2 µM) | 56.5 ± 22.3 | 1.21 ± 0.34 | 15.6 ± 2.4 | 2.75 ± 0.50 |  |
| C[C@@H](O)[C@H](NC(=O)c1ccc(C#CC#Cc2ccc(CO)cc2)cc1)C(=O)NO [Compound C] |  |  |  |  |  |  |  |  | 4 (≈ 10.2 µM) | > 16 |  |  |  |  |  |  |  |  |  |  | MIC90 (Pseudomonas aeruginosa [2]): >16 µg/mL |
